# According to ChEMBL document CHEMBL1201862, “PubChem BioAssay data set” (2004):
# Active and inactive are the calls of the source.
# Tests used:
# SUMO-activating enzyme [1] = biological target: T1, SUMO-activating enzyme (Homo sapiens, UniProt Q9UBT2); assay: blockers of UBC9-mediated SUMO conjugation – biochemical, AlphaScreen, SUMOylation inhibitor project, confirmation (AID 2018); type: functional
# SUMO-activating enzyme [2] = biological target: T1, SUMO-activating enzyme; assay: blockers of SAE1/SAE2–UBC9 SUMO transfer – biochemical, HTRF, uHTS, primary screen (AID 2006); type: protein-complex assay
# [3] = Trypanosoma cruzi growth suppression in host cells – NIH3T3 host cells, beta-gal luminescence, confirmation (AID 2044); type: functional, cell-based;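 also: intracellular parasites grown in NIH/3T3 mouse fibroblasts as host cells; luminescent beta-galactosidase reporter signal from transgenic T. cruzi replicating inside host cells; inhibitors lower the luminescence signal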
# [4] = NIH3T3 cell viability loss – ATP luminescence, mouse fibroblasts, counter-screen, dose response (AID 2010); type: functional, cell-based;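 also: cells exposed to compound for about 90 hours before reading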
# [5] = biological target: T2, Replicative DNA helicase DnaB (Mycobacterium tuberculosis, UniProt P9WMR3); assay: DnaB intein splicing inhibitors, dose response, biochemical, cell-free fluorescence (AID 449749); type: functional
# T2 sequence (P9WMR3 whole entry): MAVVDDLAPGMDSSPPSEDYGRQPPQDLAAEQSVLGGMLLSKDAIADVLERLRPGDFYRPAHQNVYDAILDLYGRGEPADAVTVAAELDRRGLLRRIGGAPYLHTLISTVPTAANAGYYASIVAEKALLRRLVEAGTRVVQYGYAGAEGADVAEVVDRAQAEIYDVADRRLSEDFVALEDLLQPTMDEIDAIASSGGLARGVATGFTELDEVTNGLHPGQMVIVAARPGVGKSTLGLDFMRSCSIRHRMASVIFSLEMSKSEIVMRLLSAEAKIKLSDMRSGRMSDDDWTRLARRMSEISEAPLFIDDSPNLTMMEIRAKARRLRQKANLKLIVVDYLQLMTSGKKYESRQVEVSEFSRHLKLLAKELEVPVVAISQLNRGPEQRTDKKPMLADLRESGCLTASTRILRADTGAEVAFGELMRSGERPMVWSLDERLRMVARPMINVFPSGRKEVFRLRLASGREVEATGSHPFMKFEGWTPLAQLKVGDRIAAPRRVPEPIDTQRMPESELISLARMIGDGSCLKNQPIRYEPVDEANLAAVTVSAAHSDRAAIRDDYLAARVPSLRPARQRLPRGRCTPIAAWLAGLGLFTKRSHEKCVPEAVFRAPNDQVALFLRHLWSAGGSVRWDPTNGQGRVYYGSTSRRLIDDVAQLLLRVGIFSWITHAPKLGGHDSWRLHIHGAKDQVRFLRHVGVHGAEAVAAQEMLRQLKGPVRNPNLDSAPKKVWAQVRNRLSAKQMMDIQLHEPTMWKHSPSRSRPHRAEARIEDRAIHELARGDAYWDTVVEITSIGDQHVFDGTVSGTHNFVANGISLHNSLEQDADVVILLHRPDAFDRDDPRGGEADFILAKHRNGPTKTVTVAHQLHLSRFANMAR
# Vero = assay: viability of Vero cells under compound – cytotoxicity control for flavivirus capping enzyme inhibitors (AID 588742); type: functional; details: Chlorocebus sabaeus
# Protein RecA = biological target: T3, Protein RecA (Mycobacterium tuberculosis, UniProt P9WHJ3); assay: Fluorescence Cell-Free Homogeneous Dose Retest to Identify Inhibitors of RecA-Intein Splicing Activity. [Related pubchem assays (depositor defined):AID2097, AID2223, AID489010, AID492950]; type: functional
# T3 sequence (P9WHJ3 whole entry): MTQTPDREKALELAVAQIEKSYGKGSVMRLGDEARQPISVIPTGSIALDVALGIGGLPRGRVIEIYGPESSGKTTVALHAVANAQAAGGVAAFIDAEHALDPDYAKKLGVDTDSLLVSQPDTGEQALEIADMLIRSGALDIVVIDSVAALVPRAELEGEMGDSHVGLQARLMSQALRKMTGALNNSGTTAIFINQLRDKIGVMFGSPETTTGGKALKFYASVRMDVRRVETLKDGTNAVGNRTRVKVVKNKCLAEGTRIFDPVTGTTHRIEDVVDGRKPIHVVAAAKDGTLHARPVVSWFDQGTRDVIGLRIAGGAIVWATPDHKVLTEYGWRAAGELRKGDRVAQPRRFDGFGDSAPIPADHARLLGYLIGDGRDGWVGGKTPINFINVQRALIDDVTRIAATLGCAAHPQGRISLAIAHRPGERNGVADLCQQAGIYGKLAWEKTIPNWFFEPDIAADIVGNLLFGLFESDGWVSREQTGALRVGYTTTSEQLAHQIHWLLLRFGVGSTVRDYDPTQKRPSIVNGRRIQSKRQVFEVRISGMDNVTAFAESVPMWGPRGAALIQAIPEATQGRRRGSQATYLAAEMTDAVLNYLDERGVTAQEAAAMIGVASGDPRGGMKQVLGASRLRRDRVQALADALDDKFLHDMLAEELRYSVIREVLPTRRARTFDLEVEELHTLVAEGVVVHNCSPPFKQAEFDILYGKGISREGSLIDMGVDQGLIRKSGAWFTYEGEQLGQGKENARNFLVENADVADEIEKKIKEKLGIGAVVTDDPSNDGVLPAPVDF
# [6] = microbe, parasite or virus in culture; type: functional; details: Mycobacterium tuberculosis
# [7] = THP-1 cell cytotoxicity, dose response, cytotoxicity control for non-replicating M. tuberculosis project (AID 489025); type: functional
# [8] = HepG2 cell cytotoxicity, dose response, cytotoxicity control for non-replicating M. tuberculosis project (AID 489018); type: functional; details: Mycobacterium tuberculosis
# [9] = biological target: T4, Ubiquitin-conjugating enzyme E2 N (Homo sapiens, UniProt P61088); type: functional;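 also: Dose-response confirmation in a TR-FRET assay detecting UBC13-driven polyubiquitin chain formation, inhibition measured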
# T4 sequence (P61088 whole entry): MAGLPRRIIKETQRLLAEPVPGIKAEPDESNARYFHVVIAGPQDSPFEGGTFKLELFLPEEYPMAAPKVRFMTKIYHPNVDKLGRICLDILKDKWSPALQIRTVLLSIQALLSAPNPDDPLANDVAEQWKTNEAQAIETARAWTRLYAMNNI
# [10] = Vero E6 cell cytotoxicity, dose response, cytotoxicity control for non-replicating M. tuberculosis project, secondary assay (AID 492998); type: functional, VeroE6; details: Vero C1008
# cells = type: functional
# Insulin-degrading enzyme [11] = biological target: T5, Insulin-degrading enzyme (Homo sapiens, UniProt P14735); assay: recombinant IDE activation, cell-free – biochemical, fluorescence polarization, counter-screen for IDE activator project, dose response (AID 588681)
# T5 sequence (P14735 whole entry): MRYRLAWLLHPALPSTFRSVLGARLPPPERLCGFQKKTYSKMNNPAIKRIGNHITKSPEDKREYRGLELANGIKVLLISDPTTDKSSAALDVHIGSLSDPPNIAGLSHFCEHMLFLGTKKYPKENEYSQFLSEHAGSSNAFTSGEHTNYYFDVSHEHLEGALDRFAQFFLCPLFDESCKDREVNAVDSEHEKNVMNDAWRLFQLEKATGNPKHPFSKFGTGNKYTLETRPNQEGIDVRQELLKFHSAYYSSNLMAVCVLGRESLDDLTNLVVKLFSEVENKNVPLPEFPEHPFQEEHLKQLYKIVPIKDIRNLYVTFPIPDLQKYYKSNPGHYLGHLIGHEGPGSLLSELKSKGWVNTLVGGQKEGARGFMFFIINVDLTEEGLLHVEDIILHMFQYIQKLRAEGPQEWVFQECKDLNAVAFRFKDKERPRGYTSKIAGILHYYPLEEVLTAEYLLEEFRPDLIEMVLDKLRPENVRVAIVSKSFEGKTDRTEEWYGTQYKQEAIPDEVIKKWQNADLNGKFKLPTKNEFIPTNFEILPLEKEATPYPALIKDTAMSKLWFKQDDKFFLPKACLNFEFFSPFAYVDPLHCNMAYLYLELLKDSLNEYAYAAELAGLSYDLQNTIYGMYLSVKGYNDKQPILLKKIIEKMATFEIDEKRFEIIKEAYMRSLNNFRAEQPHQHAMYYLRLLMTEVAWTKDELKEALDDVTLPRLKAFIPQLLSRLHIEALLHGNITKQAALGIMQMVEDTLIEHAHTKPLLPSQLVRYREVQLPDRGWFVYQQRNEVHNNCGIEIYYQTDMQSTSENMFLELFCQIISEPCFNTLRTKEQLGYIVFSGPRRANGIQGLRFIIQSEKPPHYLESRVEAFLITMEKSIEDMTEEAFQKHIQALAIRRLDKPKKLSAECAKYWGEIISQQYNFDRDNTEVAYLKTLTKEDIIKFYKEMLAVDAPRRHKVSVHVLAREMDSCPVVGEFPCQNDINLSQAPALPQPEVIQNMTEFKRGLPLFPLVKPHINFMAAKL
# Insulin-degrading enzyme [12] = biological target: T5, Insulin-degrading enzyme; assay: cellular IDE activation of Abeta substrate cleavage – fluorescence polarization, HEK cells, dose response (AID 588439); type: functional, cell-based
# HEK293 [13] = assay: membrane integrity loss in HEK cells – cell-based, fluorescence, cytotoxicity control for IDE activator project, dose response (AID 588440); type: functional; details: Homo sapiens;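 also: cytotoxicity by LDH release measuring loss of membrane integrity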
# HEK293 [14] = assay: optical interference in Abeta FP readout, dose response, artefact control for IDE activator project, biochemical, fluorescence polarization (AID 588442); type: functional, cell-based; details: Homo sapiens
# [15] = reduction of Shn3 3'UTR-driven luciferase in osteoblasts – cell-based, Clone20 osteoblasts, firefly luciferase, cherry-picked, dose response (AID 624132); type: functional;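 also: firefly luciferase luminescence from reporter carrying the Shn3 3'UTR in osteoblasts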
# [16] = loss of viability in HepG2 cells – cell-based, CellTiter-Glo, cherry-picked, cytotoxicity control for Shn3 inhibitor project, dose response (AID 624134); type: functional
# [17] = non-specific 3'UTR reporter inhibition in Clone20-Shn3RL – cell-based, Renilla luciferase, cherry-picked, counter-screen for Shn3 inhibitor project, dose response (AID 624133); type: functional
# T1 sequence (Q9UBE0 whole entry): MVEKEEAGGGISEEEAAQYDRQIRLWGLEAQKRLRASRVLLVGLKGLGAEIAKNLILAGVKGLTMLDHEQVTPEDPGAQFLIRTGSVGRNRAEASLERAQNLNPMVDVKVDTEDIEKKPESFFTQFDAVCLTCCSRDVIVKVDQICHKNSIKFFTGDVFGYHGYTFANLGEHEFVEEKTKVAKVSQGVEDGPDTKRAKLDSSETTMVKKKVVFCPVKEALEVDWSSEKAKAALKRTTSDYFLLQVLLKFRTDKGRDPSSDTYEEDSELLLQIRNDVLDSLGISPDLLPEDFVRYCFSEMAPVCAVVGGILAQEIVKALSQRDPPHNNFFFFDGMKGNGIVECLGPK
# T1 sequence (Q9UBT2 whole entry): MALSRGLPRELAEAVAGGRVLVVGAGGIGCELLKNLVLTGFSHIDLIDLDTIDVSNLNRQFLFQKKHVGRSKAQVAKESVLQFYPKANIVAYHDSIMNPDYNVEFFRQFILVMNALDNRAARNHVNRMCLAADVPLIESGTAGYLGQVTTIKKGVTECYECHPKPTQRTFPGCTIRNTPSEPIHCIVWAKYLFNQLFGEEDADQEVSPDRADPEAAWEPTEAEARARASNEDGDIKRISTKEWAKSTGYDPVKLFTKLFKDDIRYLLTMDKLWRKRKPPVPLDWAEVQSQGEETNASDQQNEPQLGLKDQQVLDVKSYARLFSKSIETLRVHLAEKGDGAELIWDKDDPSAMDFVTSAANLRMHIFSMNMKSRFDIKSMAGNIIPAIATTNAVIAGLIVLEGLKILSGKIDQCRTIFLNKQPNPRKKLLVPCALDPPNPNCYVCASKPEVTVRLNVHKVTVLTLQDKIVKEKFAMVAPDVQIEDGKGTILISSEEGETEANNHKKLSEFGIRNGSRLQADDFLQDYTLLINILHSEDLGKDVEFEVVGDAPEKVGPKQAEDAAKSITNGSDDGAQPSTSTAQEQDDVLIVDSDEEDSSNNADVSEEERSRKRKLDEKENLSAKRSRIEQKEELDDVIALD
Compound,IC50 (SUMO-activating enzyme [1]),IC50 (SUMO-activating enzyme [2]),EC50 [3],EC50 [4],AC50 [5],CC50 (Vero),EC50 (Protein RecA),CC50 [6],CC50 [7],CC50 [8],IC50 [9],CC50 [10],IC50 (cells),EC50 (Insulin-degrading enzyme [11]),EC50 (Insulin-degrading enzyme [12]),IC50 (HEK293 [13]),EC50 (HEK293 [14]),AC50 [15],AC50 [16],AC50 [17]
CCCCCn1c(NC(=O)c2ccco2)c(S(=O)(=O)c2ccc(C)cc2)c2nc3ccccc3nc21,2.74 µM (active),13.1 µM (active),3.27 µM (active),> 60 µM (not active),> 380 µM (inactive),> 40 µM (active),> 380 µM (inconclusive),–,–,–,–,–,–,–,–,–,–,–,–,–
CCCCCCCNC(=O)C1(CC2CC(c3cccc(Br)c3)=NO2)CCNCC1 (stereo not given),–,–,–,–,–,–,–,6.71 µM (active),6.82 µM (active),5.99 µM (active),> 20 µM (inactive),15.2 µM (active),17.2 µM (active),> 54.7 µM (inactive),54.5 µM (inactive),7.51 µM (active),> 55.9 µM (inactive),11.7 µM (active),14.1 µM (active),16.5 µM (active)
